Test results reported in patent US6518458B1, “(Aminoiminomethyl) amino) alkane-carboxamides and their applications in therapy” (Merck Patent GmbH, priority 1999, dated 2003).
Structures can show the parent of a compound that is named as a salt. Where two headings read alike, the source gives them in different places.

Experiments:
[1] = system: Nostz rat; experiment: Antidiabetic activity in the Nostz rat (non-insulin-dependent diabetes induced using streptozotocin); type: in vivo; details: po, 2 h, blood 2 h after final administration, diabetic rats, read-out: percentage change in glycaemia relative to d0 (before treatment); for change in vivo at 20 mg/kg: 20 mg/kg/d oral; for change in vivo at 200 mg/kg: 200 mg/kg/d oral
Experimental: The antidiabetic activity of the compounds of formula (I) was determined orally on an experimental model of non-insulin-dependent diabetes induced in the rat using streptozotocin.
The model of non-insulin-dependent diabetes is obtained in rats by neonatal injection (on the day of birth) of streptozotocin.
The diabetic rats used are 8 weeks old. The animals are kept from the day of their birth to the day of the experiment in an animal house at a regulated temperature of from 21 to 22° C. and are subjected to a fixed cycle of light (from 7.00 am to 7.00 pm) and darkness (from 7.00 pm to 7.00 am). Their diet consisted of a maintenance diet; water and food were provided ad libitum, except for the 2 hours fasting prior to the tests in which food is withdrawn (post-absorptive state).
The rats are treated orally for one (d1) or four (d4) days with the test product. Two hours after the final administration of the product and 30 minutes after anaesthesia of the animals with sodium pentobarbital (Nembutalo®), […] of blood is sampled from the end of the tail.

SMILES	change in vivo at 20 mg/kg ([1]; d1 (one day of treatment))	change in vivo at 20 mg/kg ([1]; d4 (four days of treatment))	change in vivo at 200 mg/kg ([1]; d1 (one day of treatment))	change in vivo at 200 mg/kg ([1]; d4 (four days of treatment))	melting point
Cc1cc(C)c(NC(=O)CNC(=N)N)c(C)c1 [Compound 7]	-9%	-9%	-3%	-10%	
CCC(C)[C@H](NC(=N)N)C(=O)Nc1c(C)cccc1C (stereo partly drawn) [Compound 8]	-11%	-14%	-8%	-10%	
Cc1cccc(C)c1NC(=O)CCNC(=N)N [Example 4]	-1%	-11%	-13%	-15%	223 to 225 °C
N=C(N)NCC(=O)Nc1c(Cl)cccc1Cl [Compound 12]	-9%	-13%	-14%	-27%	
CSc1cc(C)nc(SC)c1NC(=O)CNC(=N)N (as salt: HCl) [Example 3]					249 to 251 °C
Cc1cccc(C)c1NC(=O)[C@H](C(C)C)N(C)C(=N)N [Compound 10]	-13%	-15%	-3%	-16%	
Cc1cccc(C)c1NC(=O)CNC(=N)N [Example 1]	-3%	-7%	-20%	-24%	255 to 257 °C
N=C(N)NCC(=O)NCc1ccccc1 (as salt: HCl) [Compound 15]					144 to 146 °C
Cc1cccc(C)c1NC(=O)CN(C)C(=N)N (as salt: HCl) [Example 5]					227 to 229 °C
Cc1cccc(C)c1NC(=O)[C@H](CC(C)C)NC(=N)N [Compound 9]	-4%	-15%	7%	-4%	
Cc1cccc(C)c1NC(=O)[C@H](C)NC(=N)N (as salt: HCl) [Compound 6]					159 to 161 °C
Cc1cccc(C)c1NC(=O)[C@H](C)NC(=N)N [Compound 6]	8%	-3%	-4%	-18%	
N=C(N)NCC(=O)N(Cc1ccccc1)Cc1ccccc1 [Compound 11]	-14%	-9%	-3%	-16%	
CC(C)c1cccc(C(C)C)c1NC(=O)CNC(=N)N (as salt: HCl) [Compound 2]					260 to 262 °C
N=C(N)NCC(=O)N(Cc1ccccc1)Cc1ccccc1 (as salt: HCl) [Compound 11]					217 to 219 °C
CSc1cc(C)nc(SC)c1NC(=O)CNC(=N)N [Example 3]	7%	-7%	-5%	-4%	
N=C(N)NCC(=O)Nc1c(Cl)cccc1Cl (as salt: HCl) [Compound 12]					181 to 183 °C
Cc1cccc(C)c1NC(=O)CN(C)C(=N)N [Example 5]	-2%	-7%	-16%	-25%	
Cc1cc(C)c(NC(=O)CNC(=N)N)c(C)c1 (as salt: HCl) [Compound 7]					> 260 °C
